The values below come from PMC5734728, “The JAK2/STAT3 inhibitor pacritinib effectively inhibits patient-derived GBM brain tumor initiating cells in vitro and when used in combination with temozolomide increases survival in an orthotopic xenograft model” (PLoS ONE, 2017).

The conditions of data set [1]: mouse liver microsomes; usual value of control compound; cited from earlier work.
A further data set is described as follows: in vitro. Format: in vitro ADME, mouse. The following applies: male, CD-1, mouse. The protocol: (§1) Working stocks were initially diluted to a concentration of 40 μM in 0.1 M potassium phosphate buffer before addition to the reaction vials. Pooled mouse (CD-1, male) or human (50 donors) liver microsomes were utilized at a final concentration of 0.5 mg/mL. Duplicate wells were used for each time point (0 and 30 minutes). Reactions were carried out at 37°C in a shaker, and the final concentration of DMSO was kept constant at 0.01%. The final volume for each reaction was 100 μL, which included the addition of an NADPH-Regeneration solution (NRS) mix. The NRS mix was comprised of glucose 6-phosphate dehydrogenase (0.4 U/mL), NADP+ (1.3 mM), MgCl2 (3.3 mM), and glucose 6-phosphate (3.3 mM) in assay mixtures. Upon completion of the 30-minute time point, reactions were terminated by the addition of 1.5-volumes (150 μL) of ice-cold acetonitrile with 0.5% formic acid and internal standard. Samples were then centrifuged at 4,000 rpm for 10 minutes to remove debris and precipitated protein. Approximately 150 μL of supernatant was subsequently transferred to a new 96-well microplate for LC-MS analysis. Narrow-window mass extraction LC-MS analysis was performed for all samples using a Waters Xevo quadrupole time-of-flight (QToF) mass spectrometer and an ACQUITY UPLC system, to determine relative peak areas of parent compound.

For data set [2] the following is noted: human liver microsomes; usual value of control compound; cited from earlier work.
Data set [3] in a line: human liver microsomal stability assay. The following applies: human liver microsomes, 30-minute incubation, 1 μM. The format is in vitro ADME. The method, then: as §1
For data set [4], the system named is patient-derived GBM BTIC cultures. As to the kind of experiment: alamarBlue viability assay, panel of BTIC cultures. The following applies: 10 μg/mL TMZ.
Procedure: Accumax (eBioscience) was used to enzymatically dissociate BTIC spheres to single cells. Cells were seeded at 1000 cells per well in 96-well plates and treated with vehicle (DMSO) or drug, 24 hours after plating. BTIC viability was assessed after 7–14 days, once spheres were formed in control wells, by performing the alamarBlue™ (Invitrogen) assay per the manufacturer’s instructions. In brief, the alamar dye was added to each well and plates were read 6 hours later. Fluorescence intensity (excitation 540 nm; emission 590 nm) was measured on a SpectraMax M Series Multi-Mode Microplate reader. […] All experiments were performed in triplicate with a minimum of 3 wells per condition.
BTICs were treated with suboptimal doses of 1 μM pacritinib (CTI Biopharma), 10 μg/mL TMZ (Sigma), or a combination of pacritinib and TMZ. […] Percent inhibition was determined by normalizing each well to the control well (0.1% DMSO).
For data set [5], the system named is BT147 orthotopic xenograft. In words: Kaplan-Meier survival, orthotopic BT147 xenograft. The format is in vivo. The following applies: BT147 xenografted mice; pacritinib 100 mg/kg, TMZ 30 mg/kg, oral, thrice weekly for five weeks; control 52 days. The method, then:
For Kaplan-Meier survival studies, BTIC spheres from BT53 or BT147 were dissociated to a single-cell suspension. Mice were anaesthetized using 10 mg/kg ketamine/xylazine. Buprenorphine (0.05 mg/kg) was administered once pre-operatively and once post-operatively to minimize animal suffering. 5 x 10^4 cells were stereotactically implanted into the right striata of 8- to 10-week-old female severe combined immunodeficient (SCID) mice, as previously described and approved by the University of Calgary Health Sciences Animal Care Committee, accredited by CCAC. Mice were randomized to vehicle or treatment cohorts, with a minimum of 8 mice per group, one week after cell implantation. For BT147, vehicle (Ora-Plus; Galenova), pacritinib (100 mg/kg), TMZ (30 mg/kg), or a combination of pacritinib (100 mg/kg) and TMZ (30 mg/kg), were administered via oral gavage. Animals completed a five-week regimen of three weekly treatments for a total of 15 treatments. For BT53, 100 mg/kg of pacritinib was administered twice per day alone or in combination with 50 mg/kg TMZ once per day, for one week via oral gavage. Following this, mice received 100 mg/kg pacritinib twice per day in combination with 10 mg/kg TMZ once per day for two weeks. Mice were euthanized with a lethal dose of sodium pentobarbital at a pre-defined humane endpoint. Specific criteria for the endpoint included: 20% weight loss, lack of grooming, inactivity, hind limb paralysis, and/or inability to eat or drink. The body weights were closely monitored throughout the course of the experiment. […] The presence of tumor was confirmed in the mice via necropsy and cranial dissection.

The next data set concerns p-STAT3 Y705. In words: western blotting of activated STAT3 in BTICs. The format is cell-based, human. The following applies: BT53, 48 hours; 1 μM pacritinib, 10 μg/mL TMZ or both. The method, then:
BTIC spheres were enzymatically dissociated as described above and plated at 10^6 cells/2 mL of media. Cells were treated with vehicle (DMSO), pacritinib, TMZ, or a combination of pacritinib and TMZ and pelleted at select time points (3, 24, and 48 hours). For protein extraction, BTICs were lysed in modified radio-immunoprecipitation assay buffer supplemented with Complete Mini protease (Roche) and Halt phosphatase (Thermo Scientific) inhibitor cocktails. Protein concentrations were quantified using the BioRad protein assay; 20 μg of protein were loaded on 6% or 10% sodium dodecyl sulfate polyacrylamide gel electrophoresis (SDS PAGE) gels and transblotted to nitrocellulose membranes. Blots were stained with primary antibodies followed by horseradish peroxidase-conjugated secondary antibodies. Primary antibodies included p-STAT3 Y705 (1:1000; Cell Signaling Technology), STAT3 (1:1000; Cell Signaling Technology), p-Akt S473 (1:1000; Cell Signaling Technology), Akt (1:1000; Cell Signaling Technology), p-p44/42 MAPK (T202/Y204) (1:1000; Cell Signaling Technology), p44/42 MAPK (1:4000; Cell Signaling Technology), poly (ADP-ribose) polymerase (1:1000; Cell Signaling Technology), β-tubulin (1:1000; Cell Signaling Technology), and Actin (1:1000; Santa Cruz Biotechnology). Secondary antibodies included donkey anti-mouse (1:5000; Cell Signaling Technology), donkey anti-goat (1:5000; Millipore), and goat anti-rabbit (1:5000; Cell Signaling Technology). The blots were washed with tris-buffered saline and tween 20 (T-TBS) (50mM Tris, 150mM NaCl, 0.05% Tween 20, pH 7.6) and blocked with tris-buffered saline (TBS) before imaging. Bands were visualized with the SuperSignal West Pico chemiluminescent solution (Thermo Scientific) and an Amersham™ Imager 600 (General Electric).

Data set [6] concerns BT53 orthotopic xenograft. As to the kind of experiment: Kaplan-Meier survival, orthotopic BT53 xenograft. The format is in vivo, mice. The following applies: BT53; combination p < 0.0023, TMZ alone p < 0.0229, log-rank. The method, then: For Kaplan-Meier survival studies, BTIC spheres from BT53 or BT147 were dissociated to a single-cell suspension. Mice were anaesthetized using 10 mg/kg ketamine/xylazine. Buprenorphine (0.05 mg/kg) was administered once pre-operatively and once post-operatively to minimize animal suffering. 5 x 10^4 cells were stereotactically implanted into the right striata of 8- to 10-week-old female severe combined immunodeficient (SCID) mice, as previously described and approved by the University of Calgary Health Sciences Animal Care Committee, accredited by CCAC. Mice were randomized to vehicle or treatment cohorts, with a minimum of 8 mice per group, one week after cell implantation. For BT147, vehicle (Ora-Plus; Galenova), pacritinib (100 mg/kg), TMZ (30 mg/kg), or a combination of pacritinib (100 mg/kg) and TMZ (30 mg/kg), were administered via oral gavage. Animals completed a five-week regimen of three weekly treatments for a total of 15 treatments. For BT53, 100 mg/kg of pacritinib was administered twice per day alone or in combination with 50 mg/kg TMZ once per day, for one week via oral gavage. Following this, mice received 100 mg/kg pacritinib twice per day in combination with 10 mg/kg TMZ once per day for two weeks. […] The body weights were closely monitored throughout the course of the experiment. […]

Molecules are shown by their SMILES. Read-outs that look alike come from different tables or passages of the source.

Take `Cc1cc(=O)n(-c2ccccc2)n1C` [Antipyrine]: in data set [1], the “Usual value (% remaining)” value is on record as “Usual value: >90%”. Besides, the fraction remaining at 0.5 h, 1 μM in “in vitro” (microsomes, % Remaining) turned out to be 96.5%.
Turning to `COc1ccc2c(c1)[C@]13CCCC[C@@H]1[C@H](C2)N(C)CC3` [DXM], the “Usual value (% remaining)” value in data set [2] is recorded as “Usual value: 72 ± 10%”. Besides, in data set [3], the “% Remaining” value came out at 75.0%.
For the compound `CC(C)NCC(O)COc1cccc2ccccc12` (centres unmarked) [Propranolol], the “Usual value (% remaining)” value in data set [1] was “Usual value: <20%”. Further, the share remaining at 0.5 h, 1 μM in the data set “in vitro” (liver microsomes, mouse liver microsomes, 30-minute incubation, 1 μM, read-out: % Remaining) is 9.6%.
With `Cn1nnc2c(C(N)=O)ncn2c1=O` [TMZ, temozolomide], in data set [4] (representative BT12), the “sensitivity of MGMT unmethylated BTIC cultures” value is “largely resistant to TMZ”. In addition, the “sensitivity of MGMT methylated BTIC cultures” value in data set [4] (representative BT67 and BT69) is reported as “highly sensitive to TMZ”. The median survival in data set [5] is on record as 58 days. For the same compound, in the data set with p-STAT3 Y705, the “p-STAT3 Y705” value is “dramatic increase in p-STAT3 Y705”. Besides, the “survival advantage over the control, combination study” value in data set [6] is recorded as “significant survival advantage over the control arm”.
